Measurements published in patent EP1759703A1, “IMMUNISTIMULATIVE AND INTERFERONOGENOUS AGENT” (Akciju Sabiedriba "Olainfarm", priority 2004, dated 2006).
Where a name gives a salt, the structure may show the parent alone. Read-outs that look alike come from different tables or passages of the source.

Legend:
Solubility (qualitative) = type: physicochemical
[1] = system: mononuclear cells of peripheral blood (NK-cells); type: cell-based, human; settings: IU of interferon antiviral activity as regards the virus of vesicular stomatitis
[2] = system: white mice of both sexes, line "Balb"; test: Acute toxicity, single oral administration, mice; type: in vivo
Procedure: The toxicity level of claimed compounds was assessed according to a general index of acute toxicity - average fatal dose of LD50. The study was held with a single oral administration of the medication to white mice of both sexes, line "Balb", weight 18 - 20 g, and to white rats, line "Vistar", weight 130 - 250 g (female) and 225 - 370 g (male). The medications were administered to mice in the dose ranging from 25 to 1100 mg/kg, and to rats in the range of 480 - 2315 mg/kg.

[3] = system: natural killers (NK-cells); test: NK-cell functional activity test (lysis of K-562 target cells, fluorescent tag); type: cell-based; settings: Homo sapiens, ratio of treated to untreated NK-cells activity, read-out: Relative value of change of NK-activity over DMAAM compounds
Description: Immunostimulating activity. Determination of the effect of claimed compounds on functional activity of immunocomptent human cells.
Immunocompetent cells - natural killers (NK-cells) - relate to the system of natural human body resistance. Identification of the status of this immune system link gives important information about the state of the body immune status. To assess the state of this immune system link depending on the presence of studied compounds a functional test was used to determine the NK-cells capacity to expose to lysis the target cells of tumor myeloblast culture K-562, the identification of which was implemented using a fluorescent tag. NK-cells activity was identified in accordance with the number of the target cells K-562 "killed" by them which were evaluated based on the intensity of fluorescent glowing in the area characteristic for killed cells and against control results (i.e. when NK-cells are absent).
The influence level of the studied drugs on NK-cells activity was assessed based on the value of the NK-cells activity ratio when treated with these medications to the activity of untreated NK-cells in the lysis process of target cells of the test culture, line K-562.
To select medication doses and concentrations while studying their activity, their minimal toxic dose against target cells and mononuclear cells of peripheral blood was preliminarily measured.
This defines a considerable immunostimulating effect of offered substances.
In addition immunostimulating effect mainly occurs in polymeric compounds (PVASA - DMAAM, VA - VASA - DMAAM, VP - VASA - DMAAM), and with an increase of drug concentration their stimulating impact on NK-cells activity enhances. Table 1. Change of NK-cells activity over 3.5-dimethyl-1-adamantylamine.

## CC12CC3CC(C)(C1)CC(N)(C3)C2 [3.5-dimethyl-1-adamantylamine]
Solubility (qualitative)
  solubility in water: insoluble in water

## CC12CC3CC(C)(C1)CC(N)(C3)C2 [HC - DMAAM, hydrochloride 3.5-dimethyl-1-adamantylamine]
[1]; concentration 2 mcg/ml (as calculated per DMAAM)
  Interferon induction activity of NK-cells: 5.77 IU/ml
[1]; concentration 10 mcg/ml (as calculated per DMAAM)
  Interferon induction activity of NK-cells: 13.00 IU/ml
[1]; concentration 50 mcg/ml (as calculated per DMAAM)
  Interferon induction activity of NK-cells: 14.46 IU/ml
[2]
  LD50: 363 mg/kg
[3]; K562, concentration 2 mcg/ml (as calculated per DMAAM)
  fold induction at 2 µg/mL: 1
[3]; K562, concentration 10 mcg/ml (as calculated per DMAAM)
  fold induction at 10 µg/mL: 1.2
[3]; K562, concentration 50 mcg/ml (as calculated per DMAAM)
  fold induction at 50 µg/mL: 1.6
